# Measured values as given in patent US12636312B2, “Gold clusters (AuCs), composition and method for treatment of liver cirrhosis” (Wuhan Vast Conduct Science Foundation CO., LTD., priority 2020, dated 2026).
# Tests used:
# cirrhotic model mice [1] = assay: Serum biochemical testing (ALT, AST, TBil, MAO, ALB) in CCl4-induced liver cirrhosis model mice, Embodiment 3; assay type: in vivo
# From the text: (§1) 120 SPF male C57BL/6N mice, 6-8 weeks old and 16-20 g body weight, were purchased from Beijing Huafukang Experimental Animal Technology Co., Ltd. (production license number: SOCK (Jing) 2019-0008). According to body weight, they were randomly divided into 12 groups (n=10): blank control group, model group, positive control group, A-01 low dose group, A-01 high dose group, A-02 low dose group, A-02 high dose group, B-01 low-dose group, B-01 high-dose group, B-02 low-dose group, B-02 high-dose group, and C high-dose group.
# (§2) Except for the blank control group, liver cirrhosis model of mice in other groups was prepared by the method of carbon tetrachloride (CCl4)-induction treatment. The modeling protocol was as follows: (1) Each mouse was intraperitoneally injected with 10% CCl4 (diluted with olive oil) at 7 μL/g body weight, twice a week for a total of 8 weeks; mice of the blank control group were injected intraperitoneally with the same amount of olive oil solvent. (2) from the 6th week, two mice were selected and killed 48 hours after the last injection every week. The appearance of the liver was observed. After the appearance was in line with the characteristics of cirrhosis (the 8th week), the liver tissue was fixed with formalin. HE staining and Masson staining were used to evaluate the model of cirrhosis.
# After the successful modeling, the mice in the positive control group were given intragastrically 25 mg/kg sorafenib; the mice in the low or high dose groups of A-01, A-02, B-01 and B-02 were given by intraperitoneal injection at 2.5 or 10 mg/kg respectively of the corresponding test material; the mice in the C high dose group were given by intraperitoneal injection at a dose of 40 mg/kg of C; and the mice in the blank control group and the model group were given intraperitoneally physiological saline at 10 mL/kg. The administration was once a day for 20 consecutive days.
# After the administration was completed, blood was collected from mouse orbit, and sera were obtained for biochemical testing of albumin (ALbumin, ALB), total bilirubin (TBil), alanine Alanine aminotransferase (ALT), aspartate aminotransferase (AST) and monoamine oxidase (MAO) using Zhongsheng Beikong Kit and biochemical analyzer (Siemens). The detection method was performed in strict accordance with the kit instructions.
# cirrhotic model mice [2] = assay: Pathological examination of liver (HE staining, Masson staining) in CCl4-induced liver cirrhosis model mice, Embodiment 3; assay type: in vivo, C57BL/6N mice; conditions: 25 mg/kg intragastrically 20 days
# From the text: as §1
# as §2, with “cirrhosis. […]” for “cirrhosis.”
# [3] = 25 mg/kg intragastrically 20 days
# [4] = 25 mg/kg intragastrically 20 days, listed as positive control
# [5] = 25 mg/kg intragastrically 20 days, listed as positive control drug
compound,measurement,setting,value
"CNC(=O)c1cc(Oc2ccc(NC(=O)Nc3ccc(Cl)c(C(F)(F)F)c3)cc2)ccn1 [sorafenib, Sorafenib]",serum ALT level versus model group,cirrhotic model mice [1]; [3],significantly reduced
same,serum AST level versus model group,cirrhotic model mice [1]; [3],significantly reduced
same,serum TBIL level versus model group,cirrhotic model mice [1]; [3],significantly reduced
same,serum ALB level versus model group,cirrhotic model mice [1]; [4],did not significantly affect
same,serum MAO activity versus model group,cirrhotic model mice [1]; [4],did not decrease
same,serum ALB level versus model group,cirrhotic model mice [1]; [5],no significant effect
same,serum MAO activity versus model group,cirrhotic model mice [1]; [5],no effect
same,serum MAO activity,"cirrhotic model mice [1]; 25 mg/kg intragastrically 20 days, model group 21.5±0.7",21.3±2.1 U/L
same,serum AST activity,"cirrhotic model mice [1]; 25 mg/kg intragastrically 20 days, model group 192.0±11.3",165.5±11.6 U/L
same,serum ALT activity,"cirrhotic model mice [1]; 25 mg/kg intragastrically once a day for 20 days, model group 188.5±4.9",42.8±5.4 U/L
same,HE staining: liver damages versus model group,cirrhotic model mice [2],significant reduction of liver damages
